Columns and labels:
[1] = DPPH radical scavenging (517 nm)
[2] = ABTS cation radical scavenging (734 nm)
human RBC = assay: Anti-inflammatory activity: hypotonic solution-induced human RBC hemolysis (560 nm); format: cell-based
[3] = system: RAW macrophage cells (RAW 264.7); assay: MTT cell viability assay; format: cell-based; conditions: for MTT assay Average OD: control average OD 0.924
Experimental: The toxicity of the molecule was investigated by the MTT cell viability assay employing RAW macrophage cells. For this study, two lead compounds, 2b and 2e, were screened based on the in vitro results. […] (The OD values in Tables S6 and S7)
The MTT ((3-(4,5-Dimethylthiazol-2-yl)-2,5-Diphenyltetrazolium Bromide)) assay was employed to determine viability for the synthesized potent compounds 2b and 2e; the cell viability results portray the compounds’ cytotoxicity. The assay was conducted on RAW macrophage cells (RAW 264.7) with various dilutions of 2b and 2e (10, 20, 30, 40, and 50 µM). The results were confirmed with a control.

COC(=O)/C=C/c1ccc(OC)c(OC(=O)c2cccnc2)c1 [Compound 2c, 2-Methoxy-5-(3-methoxy-3-oxoprop-1-en-1-yl) phenyl nicotinate]
DPPH Inhibition % ([1]; 20 µM): 32% | DPPH Inhibition % ([1]; 40 µM): 34.9% | DPPH Inhibition % ([1]; 60 µM): 36.1% | DPPH Inhibition % ([1]; 80 µM): 48% | DPPH Inhibition % ([1]; 100 µM): 51.9% | IC50 ([1]; read-out: DPPH IC50±SD): 93.69 ± 0.26 µM | ABTS Inhibition % ([2]; 20 µM): 58% | ABTS Inhibition % ([2]; 40 µM): 59.7% | ABTS Inhibition % ([2]; 60 µM): 59.8% | ABTS Inhibition % ([2]; 80 µM): 60% | ABTS Inhibition % ([2]; 100 µM): 60% | IC50 ([2]; read-out: ABTS IC50±SD): 20.57 ± 0.13 µM | inhibition at 20 µM (human RBC; 20 µM): 48% | inhibition at 40 µM (human RBC; 40 µM): 52.9% | inhibition at 60 µM (human RBC; 60 µM): 62.5% | inhibition at 80 µM (human RBC; 80 µM): 77% | inhibition at 100 µM (human RBC; 100 µM): 86% | IC50 (human RBC; induced human RBC hemolysis, read-out: Inflammatory IC50±SD): 27.65 ± 0.2 µM | MTT assay Triplicate values OD1 ([3]; 10 µM): 0.824 | MTT assay Triplicate values OD2 ([3]; 10 µM): 0.826 | MTT assay Triplicate values OD3 ([3]; 10 µM): 0.819 | MTT assay Average OD ([3]; 10 µM): 0.823 | MTT assay Triplicate values OD1 ([3]; 20 µM): 0.754 | MTT assay Triplicate values OD2 ([3]; 20 µM): 0.753 | MTT assay Triplicate values OD3 ([3]; 20 µM): 0.758 | MTT assay Average OD ([3]; 20 µM): 0.755 | MTT assay Triplicate values OD1 ([3]; 30 µM): 0.689 | MTT assay Triplicate values OD2 ([3]; 30 µM): 0.695 | MTT assay Triplicate values OD3 ([3]; 30 µM): 0.692 | MTT assay Average OD ([3]; 30 µM): 0.692 | MTT assay Triplicate values OD1 ([3]; 40 µM): 0.596 | MTT assay Triplicate values OD2 ([3]; 40 µM): 0.604 | MTT assay Triplicate values OD3 ([3]; 40 µM): 0.606 | MTT assay Average OD ([3]; 40 µM): 0.602 | MTT assay Triplicate values OD1 ([3]; 50 µM): 0.520 | MTT assay Triplicate values OD2 ([3]; 50 µM): 0.525 | MTT assay Triplicate values OD3 ([3]; 50 µM): 0.518 | MTT assay Average OD ([3]; 50 µM): 0.521

— paper PMC12494831, “Discovery of new pyridine 3-carboxylic acid-based pharmacophores as dual anti-inflammatory and anti-hyperglycemic agents” (Scientific Reports, 2025)
